Experimental data as given in patent US11214803B2, “Modulators of YAP1 expression” (Ionis Pharmaceuticals, Inc., priority 2019, dated 2022).
Strand notation (5' to 3'): a small letter for the sugar, then the base; units joined by * are phosphorothioate-linked, units joined directly phosphodiester-linked; [ ] holds rarer units or linkages, { } end groups; capitals alone tell only the bases. e = 2'-O-(2-methoxyethyl) (MOE); k = constrained ethyl (cEt); [5mC] = 5-methylcytosine; d = 2'-deoxy (DNA); m = 2'-O-methyl

Tested on: Yap1 mRNA
Assay: Dose-dependent inhibition of human Yap1 in SNU-449 cells (Example 9, RTS36584)
Format: cell-based
Conditions: free uptake; for % UTC (Yap1 mRNA): approximately 48 hours; for IC50: linear regression on a log/linear plot
Description: Modified oligonucleotides described in the studies above were tested at various doses in SNU-449 cells. Cultured SNU-449 cells at a density of 10,000 cells per well were treated using free uptake with modified oligonucleotides diluted to concentrations described in the tables below. After approximately 48 hours, Yap1 mRNA levels were measured as previously described using the Human Yap1 primer-probe set RTS36584. Yap1 mRNA levels were normalized to total RNA content, as measured by RIBOGREEN®. Results are presented in the tables below as percent control of the amount of Yap1 mRNA relative to untreated control cells (% UTC). IC50s were calculated using a linear regression on a log/linear plot of the data in excel.

| Substance | % UTC (Yap1 mRNA) (31.3 nM) [% UTC] | % UTC (Yap1 mRNA) (125.0 nM) [% UTC] | % UTC (Yap1 mRNA) (500.0 nM) [% UTC] | % UTC (Yap1 mRNA) (2000.00 nM) [% UTC] | IC50 [nM] |
| --- | --- | --- | --- | --- | --- |
| 1200862 (kT*kT*kT*dA*dA*mA*dG*dT*dG*dT*dA*dT*dG*kT*k[5mC]*kA; antisense) [compound 1200862] | 88 | 64 | 35 | 13 | 200 |
| 1198832 (kG*k[5mC]*dA*d[5mC]*dT*dT*dT*dT*dA*d[5mC]*dA*kT*eT*kA*eG*kG; antisense) [compound 1198832] | 77 | 53 | 23 | 13 | 100 |
| 1198570 (kG*k[5mC]*kA*d[5mC]*dT*dT*dT*dT*dA*d[5mC]*dA*dT*kT*kA*kG*eG) [compound 1198570] | 58 | 33 | 16 | 9 | 40 |
| 1198295 (kT*kA*kG*dA*dG*dT*dA*dT*dG*dT*dG*dG*k[5mC]*eA*kA*eT; antisense) [compound 1198295] | 82 | 47 | 19 | 8 | 100 |
| 1198553 (kT*kA*kG*dA*dG*dT*dA*dT*dG*dT*dG*dG*k[5mC]*kA*kA*eT; antisense) [compound 1198553] | 65 | 38 | 19 | 6 | 100 |
| 1198484 (kG*k[5mC]*dA*d[5mC]*dT*dT*dT*dT*dA*d[5mC]*dA*eT*kT*eA*kG*eG) [compound 1198484] | 80 | 45 | 24 | 12 | 100 |
| 1198788 (kA*eA*kG*dT*dG*dT*dA*dT*dG*dT*d[5mC]*dA*eG*eA*kA*kG) [compound 1198788] | 64 | 30 | 7 | 2 | 100 |
| 1200861 (kT*kT*kA*dA*dA*mG*dT*dG*dT*dA*dT*dG*dT*k[5mC]*kA*kG; antisense) [compound 1200861] | 74 | 43 | 17 | 4 | 100 |
| 1198457 (kA*kT*dT*dG*dT*d[5mC]*dT*d[5mC]*dA*dT*dG*e[5mC]*k[5mC]*eT*kT*eA; antisense) [compound 1198457] | 82 | 56 | 31 | 12 | 200 |
| 1200785 (kA*kT*kT*dG*dT*mC*dT*d[5mC]*dA*dT*dG*d[5mC]*d[5mC]*kT*kT*kA; antisense) [compound 1200785] | 98 | 73 | 42 | 24 | 400 |
| 1200806 (kT*kG*kA*dG*dG*mU*dA*dT*dA*dA*d[5mC]*dT*dG*kG*kG*k[5mC]; antisense) [compound 1200806] | 91 | 54 | 34 | 18 | 200 |
| 1198596 (k[5mC]*kT*k[5mC]*dT*dT*dA*dT*dA*dT*dG*dG*dT*kT*kT*kT*eG; antisense) [compound 1198596] | 73 | 40 | 14 | 4 | 100 |
| 1198616 (kT*kT*kT*dA*dA*dA*dG*dT*dG*dT*dA*dT*kG*kT*k[5mC]*eA; antisense) [compound 1198616] | 78 | 46 | 18 | 5 | 100 |
| 1095593 (kT*kG*dA*dG*dG*dT*dA*dT*dA*dA*d[5mC]*eT*eG*eG*kG*k[5mC]; antisense) [compound 1095593] | 73 | 44 | 27 | 10 | 100 |
| 1097247 (kT*kA*kA*dA*dG*dT*dG*dT*dA*dT*dG*dT*d[5mC]*kA*kG*kA; antisense) [compound 1097247] | 58 | 28 | 8 | 2 | 40 |
| 1198211 (kA*kT*dT*dA*dG*dA*dG*dT*dA*dT*dG*eT*eG*eG*k[5mC]*kA) [compound 1198211] | 72 | 37 | 23 | 12 | 100 |
| 1198285 (kA*kT*kT*dG*dT*d[5mC]*dT*d[5mC]*dA*dT*dG*d[5mC]*k[5mC]*eT*kT*eA; antisense) [compound 1198285] | 67 | 41 | 16 | 5 | 100 |
| 1198502 (kA*kG*dA*dT*dT*dT*dA*dG*dG*dA*dT*eG*k[5mC]*eA*kT*eG; antisense) [compound 1198502] | 76 | 50 | 29 | 15 | 200 |
| 1198287 (kA*kA*kA*dT*dT*dG*dT*d[5mC]*dT*d[5mC]*dA*dT*kG*e[5mC]*k[5mC]*eT; antisense) [compound 1198287] | 95 | 68 | 36 | 16 | 300 |
| 1198959 (kA*kG*dT*dG*dT*dA*dT*dG*dT*d[5mC]*dA*kG*dA*kA*dG*kA; antisense) [compound 1198959] | 62 | 28 | 8 | 2 | 40 |
| 1198724 (kA*eG*kA*dG*dT*dA*dT*dG*dT*dG*dG*d[5mC]*eA*eA*kT*kA; antisense) [compound 1198724] | 56 | 25 | 8 | 3 | < 30 |
| 1198353 (kA*kG*kT*dG*dT*dA*dT*dG*dT*d[5mC]*dA*dG*kA*eA*kG*eA; antisense) [compound 1198353] | 60 | 30 | 10 | 4 | 40 |
| 1198697 (kA*kG*dT*dG*dT*dA*dT*dG*dT*d[5mC]*dA*dG*kA*eA*kG*eA) [compound 1198697] | 60 | 29 | 7 | 1 | 40 |
| 1198494 (kG*kT*dG*d[5mC]*dT*dT*dT*dG*dG*dA*dA*eG*kA*eT*k[5mC]*eT; antisense) [compound 1198494] | 59 | 37 | 24 | 13 | 100 |
| 1198546 (kG*kA*kA*dA*dT*dT*dG*dT*d[5mC]*dT*d[5mC]*dA*kT*kG*k[5mC]*e[5mC]) [compound 1198546] | 70 | 42 | 18 | 6 | 100 |
